Experimental data published in patent US20220313701A1, “MODULATORS OF TREX1” (Constellation Pharmaceuticals, Inc., priority 2019, published 2022).

Key:
[1] = target: T1, full length human TREX1 (Homo sapiens, UniProt Q9NSU2); assay: TREX1 Biochemical Assay (fluorescence assay, degradation of dsDNA substrate); details: 150 pM TREX1, 60 nM dsDNA substrate, 25 minutes at room temperature
T1 construct: N-terminally His-Tev tagged full length human TREX1; His-Tev (His tag with TEV site) (N); made in house; host or cells: E. coli
T1 sequence (Q9NSU2 1-314): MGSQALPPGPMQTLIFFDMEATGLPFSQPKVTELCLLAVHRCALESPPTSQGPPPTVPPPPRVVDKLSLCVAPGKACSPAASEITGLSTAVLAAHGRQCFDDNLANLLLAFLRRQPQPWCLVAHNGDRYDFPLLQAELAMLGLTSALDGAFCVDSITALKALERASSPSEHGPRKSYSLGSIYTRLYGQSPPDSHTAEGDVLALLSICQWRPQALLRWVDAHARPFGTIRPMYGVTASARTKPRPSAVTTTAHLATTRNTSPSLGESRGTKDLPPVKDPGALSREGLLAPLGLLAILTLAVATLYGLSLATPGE
Experimental: Degradation of the dsDNA liberates free fluorophore to produce a fluorescent signal. Specifically, 7.5 μL of N-terminally His-Tev tagged full length human TREX1 (expressed in E. coli and purified in house) in reaction buffer (50 mM Tris (pH 7.4), 150 mM NaCl, 2 mM DTT, 0.1 mg/mL BSA, 0.01% (v/v) Tween-20 and either 100 mM MgCl2) was added to a 384-well Black ProxiPlate Plus (Perkin Elmer) which already contained compound (150 nL) at varying concentrations as a 10 point dose-response in DMSO. To this was added 7.5 μL of dsDNA substrate (Strand A: 5′ TEX615/GCT AGG CAG 3′; Strand B: 5′ CTG CCT AGC/IAbRQSp (Integrated DNA Technologies)) in reaction buffer. Final concentrations were 150 pM TREX1, 60 nM dsDNA substrate in reaction buffer with 1.0% DMSO (v/v). After 25 minutes at room temperature, reactions were quenched by the addition of 5 μL of stop buffer (same as reaction buffer plus 200 mM EDTA). Final concentrations in the quenched reaction were 112.5 pM TREX1, 45 nM DNA and 50 mM EDTA in a volume of 20 μL. After a 5-minute incubation at room temperature, plates were read in a laser sourced Envision (Perkin-Elmer), measuring fluorescence at 615 nm following excitation w/570 nm light. IC50 values were calculated by comparing the measured fluorescence at 615 nm ratio relative to control wells pre-quenched w/stop buffer (100% inhibition) and no inhibitor (0% inhibition) controls as using non-linear least square four parameter fits and either Genedata or GraphPad Prism (GraphPad Software, Inc.).

[2] = target: T2, human TREX2 (residues M44-A279) (Homo sapiens, UniProt Q9BQ50); assay: TREX2 Biochemical Assay (fluorescence assay, degradation of dsDNA substrate); details: 2.5 nM TREX2, 60 nM dsDNA substrate, 25 minutes at room temperature
T2 construct: human TREX2 (residues M44-A279, expressed in E. coli); His-Tev (His tag with TEV site) (N); made in house; host or cells: E. coli
T2 sequence (Q9BQ50 44-279 isoform Q9BQ50-1): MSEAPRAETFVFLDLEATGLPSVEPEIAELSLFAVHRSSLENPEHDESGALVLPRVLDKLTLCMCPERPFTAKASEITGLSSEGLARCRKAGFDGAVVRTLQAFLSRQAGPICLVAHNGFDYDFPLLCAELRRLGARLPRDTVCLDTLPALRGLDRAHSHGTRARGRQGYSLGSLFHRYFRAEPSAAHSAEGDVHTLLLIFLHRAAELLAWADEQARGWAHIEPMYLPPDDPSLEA
Experimental: Degradation of the dsDNA liberates free fluorophore to produce a fluorescent signal. Specifically, 7.5 μL of N-terminally His-Tev tagged human TREX2 (residues M44-A279, expressed in E. coli and purified in house) in reaction buffer (50 mM Tris (pH 7.4), 150 mM NaCl, 2 mM DTT, 0.1 mg/mL BSA, 0.01% (v/v) Tween-20 and 100 mM MgCl2) was added to a 384-well Black ProxiPlate Plus (Perkin Elmer) which already contained compound (150 nL) at varying concentrations as a 10 point dose-response in DMSO. To this was added 7.5 μL of dsDNA substrate (Strand A: 5′ TEX615/GCT AGG CAG 3′; Strand B: 5′ CTG CCT AGC/IAbRQSp (IDT)) in reaction buffer. Final concentrations were 2.5 nM TREX2, 60 nM dsDNA substrate in reaction buffer with 1.0% DMSO (v/v). After 25 minutes at room temperature, reactions were quenched by the addition of 5 μL of stop buffer (same as reaction buffer plus 200 mM EDTA). Final concentrations in the quenched reaction mixture were […] TREX2, 45 nM DNA and 50 mM EDTA in a volume of 20 μL. After a 5-minute incubation at room temperature, plates were read in a laser sourced Envision (Perkin-Elmer), measuring fluorescence at 615 nm following excitation w/570 nm light. IC50 values were calculated by comparing the measured fluorescence at 615 nm ratio relative to control wells pre-quenched w/stop buffer (100% inhibition) and no inhibitor (0% inhibition) controls as using non-linear least square four parameter fits and either Genedata or GraphPad Prism (GraphPad Software, Inc.).

| Compound | IC50 [1] [µM] | IC50 [2] [µM] |
| --- | --- | --- |
| OC1(c2ccc(F)cc2)CCN(c2cncc(-c3ccccc3F)n2)CC1 [Example 25, 4-(4-fluorophenyl)-1-(6-(2-fluorophenyl)pyrazin-2-yl)piperidin-4-ol] | 1 to 10 | > 100 |
| OC1(c2ccc(F)cc2)CCN(c2cncc(-c3cccc(F)c3)n2)CC1 [Example 26, 4-(4-fluorophenyl)-1-(6-(3-fluorophenyl)pyrazin-2-yl)piperidin-4-ol] | 1 to 10 | > 100 |
| OC1(c2ccc(F)cc2)CCN(c2cncc(-c3ccc(F)cc3)n2)CC1 [Example 27, 4-(4-fluorophenyl)-1-(6-(4-fluorophenyl)pyrazin-2-yl)piperidin-4-ol] | > 10 | > 100 |
| COc1ccccc1-c1cncc(N2CCC(O)(c3ccc(F)cc3)CC2)n1 [Example 28, 4-(4-fluorophenyl)-1-(6-(2-methoxyphenyl)pyrazin-2-yl)piperidin-4-ol] | > 10 | > 100 |
| COc1ccc(-c2cncc(N3CCC(O)(c4ccc(F)cc4)CC3)n2)cc1 [Example 29, 4-(4-fluorophenyl)-1-(6-(4-methoxyphenyl)pyrazin-2-yl)piperidin-4-ol] | > 10 | > 100 |
| N#Cc1ccc(-c2cncc(N3CCC(O)(c4ccc(F)cc4)CC3)n2)cc1 [Example 30, 4-(6-(4-(4-fluorophenyl)-4-hydroxypiperidin-1-yl)pyrazin-2-yl)benzonitrile] | 1 to 10 | > 100 |
| OC1(c2ccc(F)cc2)CCN(c2cncc(-c3ccccc3C(F)(F)F)n2)CC1 [Example 31, 4-(4-fluorophenyl)-1-(6-(2-(trifluoromethyl)phenyl)pyrazin-2-yl)piperidin-4-ol] | 1 to 10 | > 100 |
| OC1(c2ccc(F)cc2)CCN(c2cncc(-c3ccc(C(F)(F)F)cc3)n2)CC1 [Example 33, 4-(4-fluorophenyl)-1-(6-(4-(trifluoromethyl)phenyl)pyrazin-2-yl)piperidin-4-ol] | > 10 | > 100 |
| Cc1ccc(-c2cncc(N3CCC(O)(c4ccc(F)cc4)CC3)n2)cc1 [Example 34, 4-(4-fluorophenyl)-1-(6-(p-tolyl)pyrazin-2-yl)piperidin-4-ol] | 1 to 10 | > 100 |
| Cn1cc(-c2ccnc(N3CCC(O)(c4ccc(F)cc4)CC3)n2)cn1 [Example 37, 4-(4-fluorophenyl)-1-(4-(1-methyl-1H-pyrazol-4-yl)pyrimidin-2-yl)piperidin-4-ol] | 1 to 10 | > 100 |
| Cc1nn(C)cc1-c1cc(C(N)=O)cc(N2CCC(O)(c3ccc(F)c(F)c3)CC2)n1 [Example 39, 2-(4-(3,4-difluorophenyl)-4-hydroxypiperidin-1-yl)-6-(1,3-dimethyl-1H-pyrazol-4-yl)isonicotinamide] | < 0.1 | 10 to 100 |
| Cc1nn(C)cc1-c1cc(C(=O)NCc2ccccc2)cc(N2CCC(O)(c3ccc(F)c(F)c3)CC2)n1 [Example 40, N-benzyl-2-(4-(3,4-difluorophenyl)-4-hydroxypiperidin-1-yl)-6-(1,3-dimethyl-1H-pyrazol-4-yl)isonicotinamide] | 0.1 to 1 | > 100 |
| Cc1nn(C)cc1-c1cc(CO)cc(N2CCC(O)(c3ccc(F)c(F)c3)CC2)n1 [Example 44, 4-(3,4-difluorophenyl)-1-(6-(1,3-dimethyl-1H-pyrazol-4-yl)-4-(hydroxymethyl)pyridin-2-yl)piperidin-4-ol] | 0.1 to 1 | 10 to 100 |
| Cc1nn(C)cc1-c1cc(C(C)(C)O)cc(N2CCC(O)(c3ccc(F)c(F)c3)CC2)n1 [Example 45, 4-(3,4-difluorophenyl)-1-(6-(1,3-dimethyl-1H-pyrazol-4-yl)-4-(2-hydroxypropan-2-yl)pyridin-2-yl)piperidin-4-ol] | < 0.1 | 10 to 100 |

The remaining lines, values ahead:

| IC50 [1] [µM] | IC50 [2] [µM] | Compound |
| --- | --- | --- |
| > 10 | > 100 | N#Cc1cccc(-c2cncc(N3CCC(O)(c4ccc(F)cc4)CC3)n2)c1 [Example 24, 3-(6-(4-(4-fluorophenyl)-4-hydroxypiperidin-1-yl)pyrazin-2-yl)benzonitrile] |
| > 10 | > 100 | OC1(c2ccc(F)cc2)CCN(c2cncc(-c3cccc(C(F)(F)F)c3)n2)CC1 [Example 32, 4-(4-fluorophenyl)-1-(6-(3-(trifluoromethyl)phenyl)pyrazin-2-yl)piperidin-4-ol] |
| 1 to 10 | > 100 | OC1(c2ccc(F)cc2)CCN(c2cncc(-c3ccncc3)n2)CC1 [Example 35, 4-(4-fluorophenyl)-1-(6-(pyridin-4-yl)pyrazin-2-yl)piperidin-4-ol] |
| 0.1 to 1 | > 100 | Cn1cc(-c2nccc(N3CCC(O)(c4ccc(F)cc4)CC3)n2)cn1 [Example 36, 4-(4-fluorophenyl)-1-(2-(1-methyl-1H-pyrazol-4-yl)pyrimidin-4-yl)piperidin-4-ol] |
| 1 to 10 | > 100 | COC(=O)c1cc(-c2cnn(C)c2)nc(N2CCC(O)(c3ccc(F)cc3)CC2)c1 [Example 38, methyl 2-(4-(4-fluorophenyl)-4-hydroxypiperidin-1-yl)-6-(1-methyl-1H-pyrazol-4-yl)isonicotinate] |
| < 0.1 | 10 to 100 | Cc1nn(C)cc1-c1cc(C(=O)N2CCCCC2)cc(N2CCC(O)(c3ccc(F)c(F)c3)CC2)n1 [Example 41, (2-(4-(3,4-difluorophenyl)-4-hydroxypiperidin-1-yl)-6-(1,3-dimethyl-1H-pyrazol-4-yl)pyridin-4-yl)(piperidin-1-yl)methanone] |
| 1 to 10 | > 100 | Cc1nn(C)cc1-c1cccc(N2CCC(O)(c3ccc(F)c(F)c3)CC2)n1 [Example 42, 4-(3,4-difluorophenyl)-1-(6-(1,3-dimethyl-1H-pyrazol-4-yl)pyridin-2-yl)piperidin-4-ol] |
| 0.1 to 1 | > 100 | Cc1cc(-c2cn(C)nc2C)nc(N2CCC(O)(c3ccc(F)c(F)c3)CC2)c1 [Example 43] |
| 0.1 to 1 | > 100 | Cc1nn(C)cc1-c1cc(C(F)(F)F)cc(N2CCC(O)(c3ccc(F)c(F)c3)CC2)n1 [Example 46, 4-(3,4-difluorophenyl)-1-(6-(1,3-dimethyl-1H-pyrazol-4-yl)-4-(trifluoromethyl)pyridin-2-yl)piperidin-4-ol] |
| < 0.1 | 10 to 100 | Cc1nn(C)cc1-c1cncc(N2CCC(O)(c3cc(F)c(F)c(F)c3)CC2)n1 [Example 47, 1-(6-(1,3-dimethyl-1H-pyrazol-4-yl)pyrazin-2-yl)-4-(3,4,5-trifluorophenyl)piperidin-4-ol] |
